Measurements as given in a compilation of properties of binary mixtures (doi:10.1021/acs.jced.0c00987).

Assay: xn = mol fraction of the nth substance listed
Details: 100 kPa

CCOS(=O)(=O)[O-].CC[n+]1ccn(C)c1 + OCCN(CCO)CCO
x2 = 0
Details | viscosity [mPa·s]
293.15 K | 123.5
298.15 K | 95.9
313.15 K | 49.7

OCCN(CCO)CCO + CC[n+]1ccn(C)c1.O=S(=O)([O-])C(F)(F)F
Details | electrical conductivity, 298.15 K [S/m] | electrical conductivity, 313.15 K [S/m] | viscosity, 293.15 K [mPa·s] | viscosity, 298.15 K [mPa·s] | viscosity, 303.15 K [mPa·s] | viscosity, 313.15 K [mPa·s]
x1 = 0.084 | 0.82 | 1.29 | – | 43.4 | – | 25.7
x1 = 0.167 | 0.72 | – | 55.7 | 45.1 | – | –
x1 = 0.305 | 0.53 | 0.92 | 66.8 | 52.5 | 42 | 28.2
x1 = 0.426 | – | 0.63 | 86.2 | – | 51 | 32.8
x1 = 0.539 | – | 0.463 | 118.7 | – | 66.2 | 40.7
x1 = 0.641 | 0.137 | 0.296 | 165 | 118.4 | – | 50.9
x1 = 0.723 | 0.079 | – | 233.1 | 163.2 | 117.4 | –
x1 = 0.802 | 0.041 | 0.102 | 336 | 228.6 | 160.6 | 86.3
x1 = 0.875 | – | 0.05 | 477 | – | 220.7 | 114.8
x1 = 0.94 | 0.0067 | 0.019 | 678 | 449 | 306.2 | 155
x1 = 0.969 | 0.0032 | 0.0092 | 793 | 523 | 355 | 177.4
x2 = 0.003 | 0.0004 | 0.0012 | 913 | 599 | 405 | 200.7
x2 = 0.006 | 0.0007 | – | 902 | 591 | – | –
x2 = 0.017 | 0.0019 | 0.0054 | 848 | 557 | 377 | 188

CCOS(=O)(=O)[O-].CC[n+]1ccn(C)c1 + OCC(O)CO
Details | electrical conductivity, 298.15 K [S/m] | electrical conductivity, 313.15 K [S/m] | viscosity, 293.15 K [mPa·s] | viscosity, 298.15 K [mPa·s] | viscosity, 303.15 K [mPa·s] | viscosity, 313.15 K [mPa·s]
x1 = 0.002 | 0.0004 | – | 1381.9 | 892 | 590 | –
x1 = 0.004 | 0.0006 | – | 1352.7 | 873 | 578 | –
x1 = 0.012 | 0.002 | 0.0063 | 1239 | 804 | 535 | 255.6
x2 = 0 | – | – | 123.5 | 95.9 | 75.7 | 49.7
x2 = 0.123 | – | 0.72 | 114.1 | – | 70.7 | 46.7
x2 = 0.264 | 0.386 | 0.71 | 104.7 | 81.9 | – | 43.1
x2 = 0.39 | 0.365 | 0.67 | 101.5 | 79.1 | 62.6 | 41.2
x2 = 0.5 | 0.313 | 0.6 | – | 81.2 | – | 41.2
x2 = 0.601 | – | 0.496 | 121 | – | 70.4 | 44.1
x2 = 0.703 | 0.173 | 0.371 | 162.3 | 119.2 | 89.3 | 53.3
x2 = 0.794 | 0.089 | 0.209 | 248.6 | 176.4 | 128 | 72.1
x2 = 0.901 | 0.026 | 0.071 | 533 | 360 | 249.8 | 129.3
x2 = 0.958 | 0.0075 | – | 922 | 604 | 406 | –
x2 = 0.98 | 0.0033 | 0.0102 | 1138.7 | 742 | – | 237.9

CCOS(=O)(=O)[O-].CC[n+]1ccn(C)c1 + OCCO
Details | electrical conductivity, 298.15 K [S/m] | electrical conductivity, 313.15 K [S/m] | viscosity, 293.15 K [mPa·s] | viscosity, 298.15 K [mPa·s] | viscosity, 303.15 K [mPa·s] | viscosity, 313.15 K [mPa·s]
x1 = 0.001 | – | 0.0161 | – | – | 13.5 | 9.345
x1 = 0.003 | 0.0213 | – | 20.6 | 16.7 | – | –
x1 = 0.008 | 0.057 | – | 20.6 | 16.7 | 13.7 | –
x1 = 0.014 | 0.096 | 0.162 | 20.3 | 16.5 | 13.5 | 9.4
x2 = 0 | – | – | 123.5 | – | 75.7 | 49.7
x2 = 0.304 | 0.68 | 1.13 | 54.6 | 44.5 | 36.7 | 25.1
x2 = 0.406 | 0.79 | – | – | 34.4 | 28.7 | –
x2 = 0.506 | 0.86 | 1.36 | 32.3 | 26.9 | 22.7 | 16.6
x2 = 0.597 | – | 1.48 | 25.8 | – | 18.3 | 13.5
x2 = 0.7 | 0.97 | 1.51 | 20.9 | 17.6 | 14.9 | 11
x2 = 0.792 | 0.87 | 1.38 | 18.4 | 15.4 | – | 9.59
x2 = 0.851 | – | 1.16 | 17.8 | – | 12.5 | 9.08
x2 = 0.899 | 0.53 | 0.86 | 18 | 14.9 | 12.4 | 8.92
x2 = 0.938 | 0.36 | – | 18.6 | 15.3 | 12.7 | –
x2 = 0.972 | 0.178 | 0.299 | 19.7 | 16.1 | 13.2 | 9.28

CC[n+]1ccn(C)c1.O=S(=O)([O-])C(F)(F)F + OCCO
Details | electrical conductivity, 298.15 K [S/m] | electrical conductivity, 313.15 K [S/m] | viscosity, 293.15 K [mPa·s] | viscosity, 298.15 K [mPa·s] | viscosity, 303.15 K [mPa·s] | viscosity, 313.15 K [mPa·s]
x1 = 0.001 | – | 0.0144 | 20.75 | – | 13.8 | 9.535
x1 = 0.002 | 0.0193 | 0.0335 | 20.6 | 16.7 | – | 9.46
x1 = 0.007 | 0.054 | 0.093 | – | 16.5 | 13.5 | 9.39
x1 = 0.013 | 0.082 | 0.137 | 20.1 | 16.3 | – | 9.28
x2 = 0.2 | 1.21 | 1.83 | 32.8 | 27.6 | – | 17.3
x2 = 0.413 | 1.44 | 2.17 | 21.9 | 18.6 | 15.9 | 11.9
x2 = 0.497 | – | – | 19.4 | 16.4 | 14 | –
x2 = 0.498 | 1.51 | 2.28 | – | – | – | –
x2 = 0.586 | 1.41 | 2.12 | – | – | – | –
x2 = 0.587 | – | – | 17.6 | 14.8 | 12.7 | 9.5
x2 = 0.697 | 1.25 | 1.91 | 15.8 | 13.3 | 11.3 | 8.39
x2 = 0.808 | 0.95 | – | 15.7 | 13 | 11 | –
x2 = 0.863 | 0.74 | 1.2 | 15.6 | 12.9 | 10.1 | 7.81
x2 = 0.907 | 0.52 | 0.87 | 17.1 | 14.1 | 11.7 | 8.32
x2 = 0.944 | 0.331 | 0.56 | 18.3 | 15 | 12.4 | 8.71
x2 = 0.974 | 0.161 | 0.276 | – | 15.9 | 13.1 | 9.1
